Among the data in the supplement of paper PMC6580486 are IC50 cell viability values, retold here.
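Further: alveolar rhabdomyosarcoma tumor culture.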

The subject of the experiment is U23674 (mouse alveolar rhabdomyosarcoma primary culture).
As for `NS(=O)(=O)c1ccc(N=Cc2c(O)[nH]c3ccc4ncsc4c23)cc1`, the IC50 cell viability is > 10 µM.

Take `COc1cc2ncn(-c3cc(OCc4ccccc4C(F)(F)F)c(C(C)=O)s3)c2cc1OC`: the IC50 cell viability is > 10 µM.

As to `CCn1c(-c2nonc2N)nc2c(C#CCN)ncc(OCCCN)c21`, the IC50 cell viability is > 10 µM.

In turn, `CCN1CCC(CC(=O)Nc2n[nH]c3nc(-c4cccs4)c(Br)cc23)CC1` yielded an IC50 cell viability of 1.3 µM.

For `O=C(O[C@H]1CN[C@H](C#Cc2cc3ncnc(Nc4ccc(OCc5cccc(F)c5)c(Cl)c4)c3s2)C1)N1CCOCC1`, the IC50 cell viability was > 10 µM.

Take `COC(=O)Nc1nc2ccc(S(=O)(=O)c3ccc(NC(=O)Nc4cc(C(F)(F)F)ccc4F)cc3)cc2[nH]1`: the IC50 cell viability was > 10 µM.

Consider `CS(=O)(=O)Nc1ccc(-c2cc(-c3ccccc3)cc(C(N)=O)c2N)cc1`, for which the IC50 cell viability is > 10 µM.

Take `Fc1ccc(-c2ncn(CCCN3CCOCC3)c2-c2ccncc2)cc1`: the IC50 cell viability was > 10 µM.

Consider `Cc1ccc(C(=O)NC2CC2)cc1-c1ccc2[nH]ncc2c1`, for which the IC50 cell viability is > 10 µM.

Take `Cc1ccc(NC(=O)c2ccoc2)cc1-c1ccc(C(=O)NCC2CC2)cc1`: the IC50 cell viability is > 10 µM.

On to `Fc1ccc(-c2nn3ncccc3c2-c2ccnc(Nc3ccc4c(c3)OCCO4)n2)cc1`, for which the IC50 cell viability is > 10 µM.

As for `COc1ccc2cc(-c3c(-c4ccncc4)nc(-c4ccc([S+](C)[O-])cc4)n3C)ccc2c1` (stereo not drawn), the IC50 cell viability was > 10 µM.

In turn, `COc1cc(Nc2nccc(-c3cnn4ncccc34)n2)cc(OC)c1` had an IC50 cell viability of 4 µM.

Regarding `Cc1nnc(-c2ccc(C)c(-c3ccc(C(=O)Nc4cccc(C#N)c4)cc3)c2)o1`, the IC50 cell viability was > 10 µM.

As to `Fc1ccc(-c2cc(-c3cn[nH]c3-c3ccccn3)ccn2)cc1`, the IC50 cell viability is > 10 µM.

In turn, `COc1ccc2ncn(-c3cc(O[C@H](C)c4ccccc4Cl)c(C(N)=O)s3)c2c1` showed an IC50 cell viability of 2 µM.

For `Cc1ccc2c(-c3ccnc(Nc4ccc5c(c4)OCCO5)n3)c(-c3ccc(C(F)(F)F)cc3)nn2n1`, the IC50 cell viability was > 10 µM.

With `Oc1[nH]c2ccccc2c1C=Nc1ccc(-n2cncn2)cc1`, the IC50 cell viability was > 10 µM.

Take `Cc1cc(O)cc(C)c1/C=C/c1cncc(C(=O)OC(C)(C)C)c1`: the IC50 cell viability is > 10 µM.

For `COc1ccccc1-c1cc(/C=C2\C(=O)Nc3ncc(Br)cc32)cc(Br)c1O`, the IC50 cell viability is > 10 µM.

In the case of `Cc1cc(O)cc(C)c1/C=C/c1cncc(C(N)=O)c1`, the IC50 cell viability was > 10 µM.

Regarding `N#Cc1ccc(Oc2nccc(-c3c(-c4ccc(F)cc4)ncn3C3CCNCC3)n2)cc1`, the IC50 cell viability was > 10 µM.

As to `CCn1c(-c2nonc2N)nc2cnc(Oc3cccc(NC(=O)c4ccc(OCCN5CCOCC5)cc4)c3)cc21`, the IC50 cell viability is > 10 µM.

For `Cc1ccc(-c2cc3c(NC(=O)C4CC4)ncnc3o2)cc1`, the IC50 cell viability was > 10 µM.

As to `COc1cccc(-c2c[nH]c3c(N/N=C/c4ccncc4)ncnc23)c1`, the IC50 cell viability is > 10 µM.

With `NS(=O)(=O)c1ccc(N=Nc2c(O)[nH]c3ccc(C(=O)NCCc4cnc[nH]4)cc23)cc1`, the IC50 cell viability was > 10 µM.

As to `NS(=O)(=O)c1cccc(-c2ccc3c(NC(=O)C4CC4)n[nH]c3c2)c1`, the IC50 cell viability was > 10 µM.

Turning to `CS(=O)(=O)CCNCc1nc(-c2ccc3ncnc(Nc4ccc(OCc5cccc(C(F)(F)F)c5)cc4)c3c2)cs1`, the IC50 cell viability is > 10 µM.

Regarding `c1ccc(Cc2nc3ccc(Nc4ncnc5ccccc45)cc3[nH]2)cc1`, the IC50 cell viability was > 10 µM.

Consider `COc1cc2ncn(-c3cc(OCc4ccccc4C(F)(F)F)c(C(N)=O)s3)c2cc1OC`, for which the IC50 cell viability is > 10 µM.

Turning to `O=C(Nc1n[nH]c2nc(-c3ccco3)ccc12)C1CC1`, the IC50 cell viability is > 10 µM.

For `CC1(C)CC(n2cnc(-c3ccc(F)cc3)c2-c2ccnc(N)n2)CC(C)(C)N1`, the IC50 cell viability was 0.2 µM.

As to `Cc1cc(-c2ccccn2)cc(C)c1/C=C/c1cncc(-c2nn[nH]n2)c1`, the IC50 cell viability is > 10 µM.

`COc1cccc(Nc2nccc(-c3cnn4ncccc34)n2)c1` came in with an IC50 cell viability of 0.01 µM.

Turning to `Cc1c2ccc(N(C)c3ccnc(Nc4cccc(S(N)(=O)=O)c4)n3)cc2nn1C`, the IC50 cell viability was > 10 µM.

On to `COc1cc2ncnc(Nc3ccc(C)c(O)c3)c2cc1OC`, for which the IC50 cell viability was > 10 µM.

With `Cc1cc(O)cc(C)c1/C=C/c1cncc(-c2nn[nH]n2)c1`, the IC50 cell viability is > 10 µM.

Turning to `COc1cc2ncn(-c3cc(OCc4cccs4)c(C(N)=O)s3)c2cc1OC`, the IC50 cell viability was > 10 µM.

With `CNC(=O)Oc1cc(C)c(/C=C/c2cncc(C(=O)NC)c2)c(C)c1`, the IC50 cell viability is > 10 µM.

As for `COc1ccc2[nH]c3c4[nH]c5ccc(OC)cc5c4c4c(c3c2c1)C(=O)NC4=O`, the IC50 cell viability is > 10 µM.

As for `NC(=O)c1sc(-n2cnc3ccc(C(F)(F)F)cc32)cc1OCc1ccccc1Br`, the IC50 cell viability is > 10 µM.

Take `COC(=O)c1cncc(/C=C/c2c(C)cc(O)cc2C)c1`: the IC50 cell viability was > 10 µM.

Molecule `N#Cc1c(NC(=O)c2cccc3ccccc23)sc2c1CCCC2` had an IC50 cell viability of 3.5 µM.

Regarding `c1cc(-c2cnn3nc(N4CCOCC4)ccc23)nc(NC2CC2)n1`, the IC50 cell viability was > 10 µM.

Molecule `COc1cc2c(cc1Nc1nc(N3CCc4ccccc43)c3cc[nH]c3n1)N(C(=O)CN(C)C)CC2` registered an IC50 cell viability of 0.05 µM.

For `CN(C)CCCNc1nccc(-c2c(-c3ccc(F)cc3)nn3cc(C(F)(F)F)ccc23)n1`, the IC50 cell viability stood at 2.2 µM.

With `CN(C)CCOc1ccc(-c2cc(-c3ccc4c(c3)CCC4=NO)c(-c3ccncc3)o2)cc1`, the IC50 cell viability is > 10 µM.

As to `O=c1[nH]c2ccc(N=Cc3c(O)[nH]c4ccccc34)cc2[nH]1`, the IC50 cell viability is > 10 µM.

Take `N#Cc1c(NC(=O)CN2CCOCC2)sc2c1CCCC2`: the IC50 cell viability is > 10 µM.

Turning to `NS(=O)(=O)c1ccc(Nc2cc(-c3ccc(O)c(F)c3)[nH]n2)cc1`, the IC50 cell viability is > 10 µM.

Turning to `CCn1c(-c2nonc2N)nc2ccc(F)cc21`, the IC50 cell viability is > 10 µM.

With `c1ccc(-c2[nH]ncc2-c2ccnc(-c3ccc(OCCN4CCOCC4)cc3)c2)nc1`, the IC50 cell viability was > 10 µM.

In the case of `Nc1nonc1-c1nc2cnccc2n1C1CCCCC1`, the IC50 cell viability was > 10 µM.

In the case of `CCOc1nccc2c1nc(-c1nonc1N)n2CC`, the IC50 cell viability was > 10 µM.

On to `Fc1ccc(-c2nn3ccccc3c2-c2ccncc2)cc1`, for which the IC50 cell viability was > 10 µM.

Molecule `Cc1ccc(NC(=O)CC2CC2)cc1-c1ccc(C(=O)NCC2CC2)cc1` returned an IC50 cell viability of 3.4 µM.

In turn, `CCn1c(-c2nonc2N)nc2c(C#CC(C)(C)O)nc(OC[C@H](N)c3ccccc3)cc21` displayed an IC50 cell viability of 1.6 µM.

`COc1ccc(-c2coc3ncnc(N)c23)cc1`: the IC50 cell viability is > 10 µM.

For the molecule `NC(=O)c1ccc2c(-c3ccnc(NCCCO)n3)c(-c3ccc(F)cc3)nn2c1`, the IC50 cell viability is > 10 µM.

Turning to `COc1c(C(N)=O)cc(-c2ccc(Cl)cc2)cc1-c1ccc(S(N)(=O)=O)cc1`, the IC50 cell viability is > 10 µM.

Turning to `COc1cc2ncn(-c3cc(O[C@@H](C)c4ccccc4Cl)c(C(N)=O)s3)c2cc1OC`, the IC50 cell viability is > 10 µM.

In the case of `CN1CCC(n2cnc(-c3ccc(F)cc3)c2-c2ccnc(NCCO)n2)CC1`, the IC50 cell viability is > 10 µM.

With `COc1ccc(CNC(=O)c2ccc(-c3cc(-c4nnc(C)o4)ccc3C)cc2)cc1`, the IC50 cell viability is > 10 µM.
